Assay results taken from patent US9540702B2, “Stabilization of enzymes with stable coenzymes” (Roche Diabetes Care, Inc., priority 2009, dated 2017).

What was measured:
[1] = target: GlucDH_E96G_E170K (GlucDH-mut1) (Bacillus subtilis, UniProt P12310, A229V/A236S/E170K/E96G/Q252K); assay: Residual activity of GlucDH mutant 1 after storage with coenzyme; format: biochemical; details: 24 weeks at 32° C. and 85% relative air humidity
Protocol: carbaNAD (FIG. 1A) or NAD were added to the glucose-specific GlucDH. These formulations were each applied to Pokalon foils (Lonza) and, after drying, stored under warm and humid conditions (32° C., 85% relative air humidity). Subsequently, the reaction kinetics and the function curve were determined at regular intervals. In parallel at each of the measurement times a cNAD/NAD analysis and a determination of the residual activity of the enzyme were carried out.
If a mutant is used instead of the wild-type enzyme (from Bacillus subtilis), it is possible to further increase the residual activity of GlucDH. After 24 weeks storage at 32° C. and 85% relative air humidity in the presence of cNAD, the residual activity of a mutant GlucDH_E96G_E170K with the amino acid substitutions glutamic acid→glycine at position 96 and glutamic acid→lysine at position 170 (GlucDH-mut1) of the wild-type enzyme is about 70%, whereas the residual activity of a mutant GlucDH_E170K_K252L with the amino acid substitutions glutamic acid→lysine at position 170 and lysine→leucine at position 252 (GlucDH-mut2) is about 50% (FIG. 8).

alcohol dehydrogenase = target: T1, alcohol dehydrogenase (Saccharomyces cerevisiae, UniProt P00330); assay: DSC of coenzyme binding; details: 3.8 mM ligand; 0.75M glycine sodium pyrophosphate, pH 9.0
T1 sequence (P00330 1-348): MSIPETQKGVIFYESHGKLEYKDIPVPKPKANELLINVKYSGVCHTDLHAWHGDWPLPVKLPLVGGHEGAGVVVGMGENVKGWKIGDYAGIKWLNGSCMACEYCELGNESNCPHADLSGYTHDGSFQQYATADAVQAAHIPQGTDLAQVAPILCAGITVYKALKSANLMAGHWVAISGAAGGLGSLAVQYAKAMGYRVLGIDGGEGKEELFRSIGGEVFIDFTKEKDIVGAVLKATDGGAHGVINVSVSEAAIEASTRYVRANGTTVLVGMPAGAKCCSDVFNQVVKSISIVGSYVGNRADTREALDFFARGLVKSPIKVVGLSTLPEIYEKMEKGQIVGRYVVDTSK

[2] = target: glucose dehydrogenase (GlucDH) (Bacillus subtilis, UniProt P12310); assay: Stability of glucose dehydrogenase with coenzyme in a liquid phase at 50° C.; format: biochemical; details: 10 mg/ml GlucDH, 12 mg/ml coenzyme, pH 8.5
Protocol: FIGS. 9A and 9B are graphical illustrations of the stability of glucose dehydrogenase in the presence of NAD or cNAD in a liquid phase at 50° C. for a period of 4 days (FIG. 9A) or 14 days (FIG. 9B) with test conditions of 10 mg/ml GlucDH; 12 mg/ml NAD or cNAD; buffer: 0.1 M Tris, 1.2 M NaCl, pH 8.5; temperature 50° C.
After 95 hours at 50° C. the residual activity of glucose dehydrogenase in the presence of the native coenzyme NAD is […], whereas the residual activity of GlucDH in the presence of the artificial coenzyme cNAD is 75% (FIG. 9A). After 336 hours storage at 50° C. the residual activity of the enzyme stabilized with NAD is now only about 1%; a residual activity of still about 70% is observed for the enzyme stored in the presence of cNAD. The corresponding SDS gels also show a change in the GlucDH bands in the presence of the native coenzyme NAD: new bands are seen at higher molar masses and there is a shift in the 30 kDa band.

[3] = target: Glucose dehydrogenase mutant2 (Bacillus subtilis, UniProt P12310, A229V/A236S/E170K/Q252L); assay: Enzyme activity in test strips stored up to 18 weeks (Table 6); format: biochemical
Protocol: In order to evaluate the stabilization of glucose dehydrogenase and diaphorase by carbaNAD, a number of test strips were prepared in analogy to Example 5.
The test strips were stored over a period of 18 weeks at temperatures of 5° C. (KS, refrigerator), 25° C. (RT), 30° C. (GT), 35° C. (DT) and 45° C. (HT), and the enzyme activity in the test strips was determined at the start of storage (0 weeks), after 6 weeks, after 9 weeks, after 12 weeks and after 18 weeks. The results are shown in Table 6 (glucose dehydrogenase) and in Table 7 (diaphorase).

SMILES: NC(=O)c1ccc[n+]([C@@H]2C[C@H](COP(=O)([O-])OP(=O)(O)OC[C@H]3O[C@@H](n4cnc5c(N)ncnc54)[C@H](O)[C@@H]3O)[C@@H](O)[C@H]2O)c1 [carbaNAD]
- residual activity of GlucDH-mut1 [1]: about 70%
- TM (alcohol dehydrogenase): 55.4 °C
- ΔHcal (alcohol dehydrogenase): 310 kcal/mol
- residual activity of glucose dehydrogenase ([2]; 95 hours at 50° C.): 75%
- residual activity of glucose dehydrogenase ([2]; 336 hours at 50° C.): about 70%
- Enzyme activity, glucose dehydrogenase ([3]; 0 weeks (start of storage)): 19.8 U/cm^2
- Enzyme activity, glucose dehydrogenase ([3]; DT (35° C.), 6 weeks): 19.8 U/cm^2
- Enzyme activity, glucose dehydrogenase ([3]; DT (35° C.), 9 weeks): 20.2 U/cm^2
- Enzyme activity, glucose dehydrogenase ([3]; DT (35° C.), 12 weeks): 17.2 U/cm^2
- Enzyme activity, glucose dehydrogenase ([3]; DT (35° C.), 18 weeks): 16.9 U/cm^2
- Enzyme activity, glucose dehydrogenase ([3]; GT (30° C.), 12 weeks): 17.6 U/cm^2
- Enzyme activity, glucose dehydrogenase ([3]; GT (30° C.), 18 weeks): 16.8 U/cm^2
- Enzyme activity, glucose dehydrogenase ([3]; HT (45° C.), 6 weeks): 19.0 U/cm^2
- Enzyme activity, glucose dehydrogenase ([3]; HT (45° C.), 9 weeks): 18.8 U/cm^2
- Enzyme activity, glucose dehydrogenase ([3]; KS (5° C.), 6 weeks): 20.4 U/cm^2
- Enzyme activity, glucose dehydrogenase ([3]; KS (5° C.), 9 weeks): 21.2 U/cm^2
- Enzyme activity, glucose dehydrogenase ([3]; KS (5° C.), 12 weeks): 18.5 U/cm^2
- Enzyme activity, glucose dehydrogenase ([3]; KS (5° C.), 18 weeks): 18.8 U/cm^2
- Enzyme activity, glucose dehydrogenase ([3]; RT (25° C.), 6 weeks): 20.7 U/cm^2
- Enzyme activity, glucose dehydrogenase ([3]; RT (25° C.), 9 weeks): 21.5 U/cm^2
- Enzyme activity, glucose dehydrogenase ([3]; RT (25° C.), 12 weeks): 18.0 U/cm^2
- Enzyme activity, glucose dehydrogenase ([3]; RT (25° C.), 18 weeks): 17.7 U/cm^2
